Measured values: publication PMC4335062, “Data-Driven Prediction and Design of bZIP Coiled-Coil Interactions” (PLoS Computational Biology, 2015)
Read-outs that look alike come from different tables or passages of the source. Where no end group is shown, it is not given here.

Columns and labels:
Assay in all cases: Direct-binding FRET assay
ATF5 = target: T1, ATF5 (Homo sapiens, UniProt Q9Y2D1)
T1 construct: made in house
T1 sequence (Q9Y2D1 208-271 limits assumed): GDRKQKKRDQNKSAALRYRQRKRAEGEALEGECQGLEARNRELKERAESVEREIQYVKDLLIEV
Summary of the method: (§1)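 2-fold acceptor titration in 1 mM TCEP-HCl (4 μM stock); donor fluorescence read. Kd fitted by simulating homo/heterodimer equilibria; fits required ≥15% donor signal change over 0–1000 nM acceptor, else "NS".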

BATF = target: T2, BATF (Homo sapiens, UniProt Q16520)
T2 construct: made in house
T2 sequence (Q16520 26-89 limits assumed): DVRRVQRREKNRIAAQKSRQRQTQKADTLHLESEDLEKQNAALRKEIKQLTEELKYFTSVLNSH
Summary of the method: as §1

BATF2 = target: T3, BATF2 (Homo sapiens, UniProt Q8N1L9)
T3 construct: made in house
T3 sequence (Q8N1L9 17-80 limits assumed): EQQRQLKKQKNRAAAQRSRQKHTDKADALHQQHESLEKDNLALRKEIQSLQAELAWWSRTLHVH
Summary of the method: as §1

CREB3 = target: T4, CREB3 (Homo sapiens, UniProt O43889)
T4 construct: made in house
T4 sequence (O43889 150-213 limits assumed): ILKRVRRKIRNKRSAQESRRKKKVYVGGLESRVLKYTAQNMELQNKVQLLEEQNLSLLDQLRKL
Summary of the method: as §1

CREB3L1 = target: T5, CREB3L1 (Homo sapiens, UniProt Q96BA8)
T5 construct: made in house
T5 sequence (Q96BA8 290-353 limits assumed): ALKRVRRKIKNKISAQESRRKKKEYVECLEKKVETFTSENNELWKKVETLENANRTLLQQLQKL
Summary of the method: as §1

CREB3L3 = target: T6, CREB3L3 (Homo sapiens, UniProt Q68CJ9)
T6 construct: made in house
T6 sequence (Q68CJ9 243-306 limits assumed): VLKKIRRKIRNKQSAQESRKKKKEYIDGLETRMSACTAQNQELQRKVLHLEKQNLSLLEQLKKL
Summary of the method: as §1

DBP = target: T7, DBP (Homo sapiens, UniProt Q10586)
T7 construct: made in house
T7 sequence (Q10586 255-318 limits assumed): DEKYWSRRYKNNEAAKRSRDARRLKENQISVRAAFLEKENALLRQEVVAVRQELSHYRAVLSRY
Summary of the method: as §1

FOSL1 = target: T8, FOSL1 (Homo sapiens, UniProt P15407)
T8 construct: made in house
T8 sequence (P15407 105-168 limits assumed): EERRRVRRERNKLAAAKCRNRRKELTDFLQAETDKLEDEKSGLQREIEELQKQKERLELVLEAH
Summary of the method: as §1

JUNB = target: T9, JUNB (Homo sapiens, UniProt P17275)
T9 construct: made in house
T9 sequence (P17275 268-331 limits assumed): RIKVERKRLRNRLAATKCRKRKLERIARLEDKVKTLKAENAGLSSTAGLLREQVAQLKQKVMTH
Summary of the method: as §1

NFE2L2 = target: T10, NFE2L2 (Homo sapiens, UniProt Q16236)
T10 construct: made in house
T10 sequence (Q16236 497-560 limits assumed): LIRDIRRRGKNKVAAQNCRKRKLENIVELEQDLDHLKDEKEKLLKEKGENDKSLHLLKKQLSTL
Summary of the method: as §1

[1] = 4°C, C-terminal fluorescein design as donor, TAMRA target titrated, read-out: Kd
[2] = 4°C, C-terminal rhodamine design, mean or single, read-out: Kd
[3] = 23°C, C-terminal rhodamine design, mean or single, read-out: Kd
[4] = 23°C, C-terminal rhodamine design, repeat 1, read-out: Kd
[5] = 23°C, C-terminal rhodamine design, repeat 2, read-out: Kd
[6] = 23°C, C-terminal rhodamine design, repeat 3, read-out: Kd
[7] = 37°C, C-terminal fluorescein design as donor, TAMRA target titrated, read-out: Kd
[8] = 37°C, C-terminal rhodamine design, mean or single, read-out: Kd
[9] = 37°C, C-terminal rhodamine design, repeat 1, read-out: Kd
[10] = 37°C, C-terminal rhodamine design, repeat 2, read-out: Kd
[11] = 37°C, C-terminal rhodamine design, repeat 3, read-out: Kd
[12] = 37°C, N-terminal rhodamine design, mean or single, read-out: Kd
[13] = 4°C, N-terminal rhodamine design, mean or single, read-out: Kd
[14] = 23°C, C-terminal fluorescein design as donor, TAMRA target titrated, read-out: Kd
[15] = 23°C, N-terminal rhodamine design, mean or single, read-out: Kd
[16] = Kd, 4°C, C-terminal fluorescein design as donor, TAMRA target titrated
[17] = Kd, 4°C, C-terminal rhodamine design, mean or single
[18] = Kd, 4°C, N-terminal rhodamine design, mean or single
[19] = Kd, 23°C, C-terminal fluorescein design as donor, TAMRA target titrated
[20] = Kd, 23°C, C-terminal rhodamine design, mean or single
[21] = Kd, 23°C, N-terminal rhodamine design, mean or single
[22] = Kd, 37°C, C-terminal fluorescein design as donor, TAMRA target titrated
[23] = Kd, 37°C, C-terminal rhodamine design, mean or single
[24] = Kd, 37°C, N-terminal rhodamine design, mean or single
[25] = 4°C, C-terminal rhodamine design, mean or single
[26] = 4°C, N-terminal rhodamine design, mean or single
[27] = 23°C, C-terminal rhodamine design, mean or single
[28] = 23°C, N-terminal rhodamine design, mean or single
[29] = 37°C, N-terminal rhodamine design, mean or single

Measured: Kd

NQIKTLRTRLSKLRKDNLQLEKDIANLERKAKDLRAEKEQLEYEL [ATF4-d1]
< 200 nM: CREB3L1; [3]
35.5 nM: ATF5; [1]
> 5000 nM: ATF5; [2] | ATF5; [3] | ATF5; [4] | ATF5; [5] | ATF5; [6] | ATF5; [8] | ATF5; [9] | ATF5; [10] | ATF5; [11] | BATF; [13] | CREB3; [8] | CREB3L1; [2] | CREB3L3; [2] | DBP; [2] | FOSL1; [1] | FOSL1; [13] | NFE2L2; [1] | NFE2L2; [3] | NFE2L2; [4] | NFE2L2; [5] | NFE2L2; [6] | NFE2L2; [11]
> 1000 nM: ATF5; 23°C, N-terminal rhodamine design, repeat 1, read-out: Kd | ATF5; [7] | ATF5; [12] | ATF5; 37°C, N-terminal rhodamine design, repeat 1, read-out: Kd | ATF5; 37°C, N-terminal rhodamine design, repeat 2, read-out: Kd | ATF5; 37°C, N-terminal rhodamine design, repeat 3, read-out: Kd | BATF; [2] | BATF; [14] | BATF; [3] | BATF; [15] | BATF; [7] | BATF; [8] | BATF; [12] | BATF2; [1] | BATF2; [2] | BATF2; [13] | BATF2; [14] | BATF2; [3] | BATF2; [15] | BATF2; [7] | BATF2; [8] | BATF2; [12] | CREB3; [2] | CREB3; [13] | CREB3; [3] | CREB3; [15] | CREB3; [12] | CREB3L1; [13] | CREB3L1; [15] | CREB3L1; [8] | CREB3L1; [12] | CREB3L3; [1] | CREB3L3; [13] | CREB3L3; [14] | CREB3L3; [3] | CREB3L3; [15] | CREB3L3; [7] | CREB3L3; [8] | CREB3L3; [12] | DBP; [13] | DBP; [14] | DBP; [3] | DBP; [15] | DBP; [7] | DBP; [8] | DBP; [12] | FOSL1; [2] | FOSL1; [14] | FOSL1; [3] | FOSL1; [15] | FOSL1; [7] | FOSL1; [8] | FOSL1; [12] | JUNB; [1] | JUNB; [2] | JUNB; [13] | JUNB; [14] | JUNB; [3] | JUNB; [15] | JUNB; [7] | JUNB; [8] | JUNB; [12] | NFE2L2; [14] | NFE2L2; [15] | NFE2L2; [7] | NFE2L2; [9] | NFE2L2; [10] | NFE2L2; [12]
47.9 nM: NFE2L2; [13]

SIAATLEKEEANLEKMNKKLAAEIESLLKEKDKLESVLNYHE [JUN-d1]
1 nM: JUNB; [17]
8.4 nM: JUNB; [20]
51 nM: JUNB; [23]
850 nM: JUNB; [24]
2.7 nM: JUNB; [18]
200 to 1000 nM: BATF; [17]
53 nM: JUNB; [21]
> 1000 nM: ATF5; [16] | ATF5; [18] | ATF5; [19] | ATF5; [20] | ATF5; [21] | ATF5; [22] | ATF5; [23] | ATF5; [24] | BATF; [16] | BATF; [18] | BATF; [19] | BATF; [20] | BATF; [21] | BATF; [22] | BATF; [23] | BATF; [24] | BATF2; [16] | BATF2; [18] | BATF2; [19] | BATF2; [20] | BATF2; [21] | BATF2; [22] | BATF2; [23] | BATF2; [24] | CREB3 | CREB3; [25] | CREB3; [26] | CREB3; [27] | CREB3; [28] | CREB3; [29] | CREB3L1 | CREB3L1; [25] | CREB3L1; [26] | CREB3L1; [27] | CREB3L1; [28] | CREB3L1; [29] | CREB3L3 | CREB3L3; 4°C, C-terminal fluorescein design as donor, TAMRA target titrated | CREB3L3; [25] | CREB3L3; [26] | CREB3L3; 23°C, C-terminal fluorescein design as donor, TAMRA target titrated | CREB3L3; [27] | CREB3L3; [28] | CREB3L3; 37°C, C-terminal fluorescein design as donor, TAMRA target titrated | CREB3L3; [29] | DBP; [16] | DBP; [18] | DBP; [19] | DBP; [21] | DBP; [22] | DBP; [23] | DBP; [24] | FOSL1 | FOSL1; [25] | FOSL1; [26] | FOSL1; [27] | FOSL1; [28] | FOSL1; [29] | NFE2L2; [16] | NFE2L2; [17] | NFE2L2; [18] | NFE2L2; [19] | NFE2L2; [20] | NFE2L2; [21] | NFE2L2; [22] | NFE2L2; [24]
> 5000 nM: ATF5; [17] | BATF2; [17] | DBP; [17] | DBP; [20] | NFE2L2; [23]
